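How tested: cells in 96-well plates exposed to compound for 48 hours at five concentrations. GI50 marks 50% less growth.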 Calls of active or inactive are those of the source. No stated cut-off is given here; in the data, active = GI50 up to about 1.1 µM and inactive = higher.
Assays:
Test in all cases: NCI-60 cell line screen, 48 h
ACHN = test system: ACHN
NCI/ADR-RES = test system: NCI/ADR-RES
OVCAR-4 = test system: OVCAR-4
KM12 = test system: KM12
SF-295 = test system: SF-295
A549 = test system: A549
SK-MEL-5 = test system: SK-MEL-5
DU-145 = test system: DU-145
MOLT-4 = test system: MOLT-4
HCT-15 = test system: HCT-15
NCI-H460 = test system: NCI-H460
UO-31 = test system: UO-31
LOX IMVI = test system: LOX IMVI
HOP-92 = test system: HOP-92
OVCAR-8 = test system: OVCAR-8
SN12C = test system: SN12C
M14 = test system: M14
Hs-578T = test system: Hs-578T
IGROV-1 = test system: IGROV-1
T47D = test system: T47D

Measured: GI50

CCCCS/C(=C(/C#N)C(N)=O)c1cc2c([nH]1)CCCC2
9.71 µM: HCT-15
inactive: ACHN 16.3 µM | NCI/ADR-RES 8 µM | OVCAR-4 16.1 µM | KM12 5.78 µM | SF-295 12.4 µM | A549 21.9 µM | SK-MEL-5 13.8 µM | DU-145 12.1 µM | MOLT-4 10 µM | NCI-H460 18.7 µM | UO-31 13.1 µM | LOX IMVI 8.93 µM | HOP-92 17.1 µM | OVCAR-8 15.6 µM | SN12C 23.9 µM

C=C1C(C)C2C(Cc3ccccc3)NC(=O)C23C(OC(C)=O)C=CC(C)(O)C(=O)C(C)C/C=C/C3C1O (centres undefined)
active: ACHN 0.889 µM | SF-295 0.366 µM | A549 0.764 µM | SK-MEL-5 0.76 µM | Hs-578T 0.0652 µM | NCI-H460 0.258 µM | UO-31 0.296 µM | IGROV-1 0.902 µM | LOX IMVI 0.101 µM | HOP-92 0.569 µM
inactive: NCI/ADR-RES > 65.9 µM | OVCAR-4 3.55 µM | KM12 90.8 µM | M14 7.24 µM | DU-145 28.2 µM | OVCAR-8 79.8 µM | SN12C 39.3 µM

CCCC1C[C@H]2CCCCN2[C@H]2CCCN12 (some centres undefined)
> 46.7 µM: HCT-15
inactive: ACHN > 100 µM | OVCAR-4 > 100 µM | KM12 > 100 µM | SF-295 > 100 µM | A549 > 87.1 µM | SK-MEL-5 > 100 µM | M14 > 100 µM | MOLT-4 > 100 µM | NCI-H460 > 66.4 µM | UO-31 > 100 µM | IGROV-1 > 100 µM | LOX IMVI > 39.4 µM | HOP-92 > 100 µM | OVCAR-8 > 100 µM | SN12C > 100 µM

Cc1cnc(Cl)nc1C(C#N)c1nc2ccccc2s1 (centres undefined)
16.6 µM: HCT-15
inactive: ACHN 18.7 µM | NCI/ADR-RES 22 µM | OVCAR-4 22.8 µM | T47D 34.1 µM | KM12 33.8 µM | SF-295 19.8 µM | A549 29 µM | SK-MEL-5 5.57 µM | M14 28 µM | DU-145 31.8 µM | MOLT-4 63.5 µM | NCI-H460 30.7 µM | UO-31 31.7 µM | IGROV-1 21.6 µM | LOX IMVI 18.8 µM | HOP-92 7.33 µM | OVCAR-8 25.7 µM | SN12C 14.1 µM

NS(=O)(=O)c1nnc(NS(=O)(=O)c2ccc([N+](=O)[O-])cc2)s1
> 100 µM: HCT-15
inactive: ACHN > 100 µM | NCI/ADR-RES > 100 µM | OVCAR-4 > 100 µM | T47D 34.9 µM | KM12 > 100 µM | SF-295 > 100 µM | A549 > 100 µM | SK-MEL-5 69.2 µM | M14 > 100 µM | DU-145 > 100 µM | MOLT-4 26.3 µM | NCI-H460 > 100 µM | UO-31 > 100 µM | IGROV-1 > 100 µM | LOX IMVI 30.4 µM | HOP-92 > 100 µM | OVCAR-8 > 100 µM

COc1cc2c[n+](C)c3c4cc(OC)c(OCc5ccccc5)cc4c(OCc4ccccc4)cc3c2cc1OC
inactive: ACHN > 75.2 µM | NCI/ADR-RES 84.7 µM | OVCAR-4 4.11 µM | T47D 5.22 µM | KM12 10.5 µM | SF-295 25.7 µM | A549 30 µM | SK-MEL-5 2.08 µM | M14 9.66 µM | DU-145 11.5 µM | MOLT-4 2.54 µM | NCI-H460 33 µM | UO-31 > 100 µM | IGROV-1 1.69 µM | LOX IMVI 5.3 µM | HOP-92 1.84 µM | OVCAR-8 6.85 µM | SN12C 4.03 µM
97.9 µM: HCT-15

COC(=O)[C@@H]1C[C@H]2OC(=O)CC[C@]2(C)O[C@H]1[C@H]1O[C@@](C)(O)CCC[C@H]1C
> 50 µM: HCT-15
inactive: ACHN > 50 µM | OVCAR-4 > 50 µM | T47D > 50 µM | KM12 > 50 µM | SF-295 > 50 µM | A549 > 50 µM | SK-MEL-5 > 50 µM | M14 > 50 µM | DU-145 > 50 µM | Hs-578T > 50 µM | MOLT-4 > 50 µM | NCI-H460 > 50 µM | UO-31 > 50 µM | IGROV-1 > 50 µM | LOX IMVI 6.07 µM | OVCAR-8 > 50 µM | SN12C > 50 µM

CC(=O)C1Cn2c(=O)c3cc4ccccc4cc3c(=O)n2C=C1C (centres undefined)
76.7 µM: HCT-15
inactive: ACHN > 100 µM | OVCAR-4 > 100 µM | KM12 > 100 µM | SF-295 > 100 µM | A549 > 100 µM | SK-MEL-5 91.4 µM | M14 > 100 µM | MOLT-4 > 100 µM | NCI-H460 97.9 µM | UO-31 > 100 µM | IGROV-1 > 100 µM | LOX IMVI > 100 µM | HOP-92 61.2 µM | OVCAR-8 > 100 µM | SN12C > 100 µM
